Read-outs that look alike come from different tables or passages of the source.
Molecular target: T1, rNav1.2 sodium channels (Rattus norvegicus, UniProt P04775)
T1 construct: host or cells: HEK-293
Assay: QPatch automated patch clamp, inhibition of sodium currents evoked by 5 Hz trains at three extracellular pH values
Assay type: cell-based
Details: for class of pH-dependence pattern (cluster analysis): Ward's method on 18 variables of affinity, reversibility, onset; for τoffset / τonset: concentration (lidocaine 300 μM, memantine 30 μM)
Protocol: HEK-293 cells stably expressing rNav1.2 sodium channels were obtained from NeuroSearch (Ballerup, Denmark). The cells were grown in Dulbecco's modified Eagle medium supplemented with 10% FBS. Prior to use, the cells were trypsinized and subsequently kept in suspension in the QPatch cell storage facility in CHO-S- SFM-II medium.
Composition of the extracellular solution was: (in mM): 140 NaCl, 3 KCl, 1 CaCl2 1 MgCl2, 0.1 CdCl2, 20 TEA-Cl, 5 HEPES, adjusted to pH 7.3, Osmolality: 320 mOsm. […] Drugs were synthesized in Gedeon Richter Plc. […] The full list of drugs, with their three-letter codes, concentration, as well as their main therapeutic indication and main mechanism of action are shown in Table 1. […] The choice of concentrations used in this study may seem unusually high.
Data were sampled at a frequency of 25 kHz and filtered at 5 kHz. Junction potential was calculated to be −11 mV and was corrected for. […] Cells having membrane resistance < 500 MOhm, series resistance > 9 MOhm, or capacitance > 22 pF were excluded from analysis. The experimental protocol was also identical to the one used in our previous study: sodium channels were activated by 5 Hz trains of 5 depolarizations (−90 to −10 mV) repeated in every 20 s. In this study, however, the same control–drug-application–washout sequence was repeated four times: at neutral, acidic, alkalic, and again neutral pH. The peak amplitudes of sodium currents throughout the whole experiment are shown plotted against time in Figure 1 and Supplementary Figure 1.
Initial analysis, including subtraction of leak and capacitive artifacts, as well as peak detection were done in the QPatch software. […] All experiments were normalized to the amplitude of the current evoked by the first depolarization of the last train under control conditions. […] For all four drug applications in an experiment, apparent affinity, onset and offset time constants as well as reversibility values were calculated. […] (This method is equivalent to applying the Lineweaver-Burk plot method using a single concentration.) Reversibility values were calculated from control (c), inhibited (i), and wash-out (w) amplitudes as follows: Reversibility = (w-i)/(c-i). Reversibility values should not be regarded as experimental platform-independent properties of compounds. […] However, reversibility values are a valuable source of information regarding physicochemical differences between individual drugs, or between effects of the same drug under different extracellular pH conditions. Onset and offset time constants were determined by single exponential fitting to individual experiments. For neutral pH numerical data were given as the average of the data from the first and the last drug applications. Thin black lines on Figure 1 and Supplemental Figure 1 show the average of five fitted exponentials, (not the exponential fitted to the averaged normalized amplitudes). The numerical values of apparent affinity, onset and offset time constants and reversibility are shown in Table 2, and their relative position is illustrated in Figure 2. Affinity and time constant values were logarithmically transformed for statistics, therefore we show their geometric mean. For recovery data no transformation was done, and we show arithmetic mean values. Significance values were calculated using paired, two-tailed Student's t-test based on five pairs of apparent affinity (log transform), time constant (log transform), or reversibility values obtained from five individual experiments. Because of the large number of comparisons in this study, we accepted p < 0.01 as significant. Cluster analysis was done using Ward's minimum variance method, with Euclidean distance measure. Data were normalized by subtracting the mean (after logarithmic transformation in the case of apparent affinity and time constants), and dividing by the standard deviation.

[1] = pH 6.0, single concentration (lidocaine 300 μM, memantine 30 μM), geometric mean of 5, read-out: apparent affinity
[2] = pH 7.3, single concentration (lidocaine 300 μM, memantine 30 μM), geometric mean of 5, read-out: apparent affinity
[3] = pH 8.6, single concentration (lidocaine 300 μM, memantine 30 μM), geometric mean of 5, read-out: apparent affinity
[4] = pH=6.0, cc 30 mM, read-out: Apparent Affinity
[5] = pH=7.3, cc 30 mM, read-out: Apparent Affinity
[6] = pH=8.6, cc 30 mM, read-out: Apparent Affinity

T1 sequence (P04775 whole entry): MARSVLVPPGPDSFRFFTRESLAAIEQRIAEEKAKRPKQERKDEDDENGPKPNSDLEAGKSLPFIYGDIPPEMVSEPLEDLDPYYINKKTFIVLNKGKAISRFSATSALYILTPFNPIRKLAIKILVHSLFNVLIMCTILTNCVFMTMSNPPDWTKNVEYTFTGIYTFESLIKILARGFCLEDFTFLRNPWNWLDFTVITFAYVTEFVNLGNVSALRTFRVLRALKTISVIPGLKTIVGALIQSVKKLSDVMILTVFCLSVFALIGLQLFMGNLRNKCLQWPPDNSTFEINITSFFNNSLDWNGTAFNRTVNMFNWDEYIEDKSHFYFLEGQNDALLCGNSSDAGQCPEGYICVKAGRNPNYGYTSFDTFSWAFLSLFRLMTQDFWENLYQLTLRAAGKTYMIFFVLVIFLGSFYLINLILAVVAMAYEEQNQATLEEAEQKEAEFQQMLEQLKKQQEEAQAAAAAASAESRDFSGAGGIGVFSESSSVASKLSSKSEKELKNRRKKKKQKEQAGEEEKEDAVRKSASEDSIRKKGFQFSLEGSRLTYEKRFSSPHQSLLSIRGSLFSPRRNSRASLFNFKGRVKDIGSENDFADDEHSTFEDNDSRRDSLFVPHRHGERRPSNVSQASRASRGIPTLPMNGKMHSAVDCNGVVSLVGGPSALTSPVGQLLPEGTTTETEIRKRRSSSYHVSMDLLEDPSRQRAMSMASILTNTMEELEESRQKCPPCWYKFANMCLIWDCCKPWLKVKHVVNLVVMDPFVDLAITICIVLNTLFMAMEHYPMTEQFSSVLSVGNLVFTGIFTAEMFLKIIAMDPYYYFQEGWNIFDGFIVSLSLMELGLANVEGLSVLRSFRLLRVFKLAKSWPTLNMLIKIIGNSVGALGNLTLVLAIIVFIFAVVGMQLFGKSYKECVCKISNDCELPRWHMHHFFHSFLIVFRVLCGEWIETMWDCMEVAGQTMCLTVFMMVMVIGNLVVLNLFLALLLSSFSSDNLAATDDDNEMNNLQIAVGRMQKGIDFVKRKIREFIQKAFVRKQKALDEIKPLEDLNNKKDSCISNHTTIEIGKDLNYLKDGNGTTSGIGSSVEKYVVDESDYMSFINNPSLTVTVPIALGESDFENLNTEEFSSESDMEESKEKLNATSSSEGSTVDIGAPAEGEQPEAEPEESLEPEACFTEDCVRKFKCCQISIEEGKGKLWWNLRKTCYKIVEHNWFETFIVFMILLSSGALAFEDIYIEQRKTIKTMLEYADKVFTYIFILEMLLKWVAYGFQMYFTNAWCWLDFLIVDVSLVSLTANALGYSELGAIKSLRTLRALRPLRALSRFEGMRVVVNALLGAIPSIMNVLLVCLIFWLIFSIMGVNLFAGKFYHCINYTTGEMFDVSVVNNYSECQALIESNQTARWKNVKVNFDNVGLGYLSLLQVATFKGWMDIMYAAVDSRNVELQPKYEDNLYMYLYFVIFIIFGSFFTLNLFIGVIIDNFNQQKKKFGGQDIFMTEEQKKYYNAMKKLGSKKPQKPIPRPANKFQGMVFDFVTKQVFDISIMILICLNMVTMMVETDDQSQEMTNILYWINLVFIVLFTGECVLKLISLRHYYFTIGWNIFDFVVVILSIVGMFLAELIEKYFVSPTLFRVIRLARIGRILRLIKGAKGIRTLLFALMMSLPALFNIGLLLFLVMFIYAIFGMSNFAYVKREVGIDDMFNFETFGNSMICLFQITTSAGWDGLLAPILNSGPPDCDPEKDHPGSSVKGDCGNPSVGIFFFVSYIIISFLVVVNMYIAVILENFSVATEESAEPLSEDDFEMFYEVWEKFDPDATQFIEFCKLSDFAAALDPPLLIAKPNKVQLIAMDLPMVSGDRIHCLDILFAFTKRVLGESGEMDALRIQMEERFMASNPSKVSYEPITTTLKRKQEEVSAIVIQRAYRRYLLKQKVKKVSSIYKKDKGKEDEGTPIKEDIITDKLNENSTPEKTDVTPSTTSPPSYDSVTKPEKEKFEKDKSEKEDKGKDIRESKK

## CCc1nn(CCCN2CCN(c3cccc(Cl)c3)CC2)c(=O)n1CCOc1ccccc1 [nefazodone]
  class of pH-dependence pattern (cluster analysis): Class G
neutral-to-alkalic solution exchange, in words
  alkalization-induced recovery: prominent alkalization-induced recovery
pH 6.0, 7.3 and 8.6
  reversibility at all three pH values: below 0.6
pH 6.0/7.3, cc 30 mM
  Ratio Reversibility: 0.854
  Ratio Tau Offset: 0.978
  Ratio Tau Onset: 0.875
  log Ratio App Aff: 0.341
pH 6.0/8.6, cc 30 mM
  Ratio Reversibility: 1.152
  Ratio Tau Offset: 0.825
  Ratio Tau Onset: 0.863
  log Ratio App Aff: 0.122
pH 6.0
  τoffset: 13.20 s
  τonset: 12.60 s
[1]
  Kd: 38.2 µM
pH 7.3/8.6, cc 30 mM
  Ratio Reversibility: 1.349
  Ratio Tau Offset: 0.844
  Ratio Tau Onset: 0.986
  log Ratio App Aff: -0.220
pH 7.3
  τoffset: 13.50 s
  τonset: 14.40 s
[2]
  Kd: 17.4 µM
pH 8.6
  τoffset: 16.00 s
  τonset: 14.60 s
[3]
  Kd: 28.9 µM
pH=6.0, cc 30 mM
  Reversibility: 0.51
[4]
  Kd: 38.2 µM
pH=7.3, cc 30 mM
  Reversibility: 0.59
[5]
  Kd: 17.4 µM
pH=8.6, cc 30 mM
  Reversibility: 0.44
[6]
  Kd: 28.9 µM

## CNCCC(Oc1ccccc1OC)c1ccccc1 (stereo not drawn) [nisoxetine]
Apparent Affinity, pH=6.0, cc 100 mM
  Kd: 210 µM
Apparent Affinity, pH=7.3, cc 100 mM
  Kd: 80.1 µM
Apparent Affinity, pH=8.6, cc 100 mM
  Kd: 28.6 µM
  class of pH-dependence pattern (cluster analysis): Class F
Apparent affinity, pH 6.0, single concentration (lidocaine 300 μM, memantine 30 μM), geometric mean of 5
  Kd: 210 µM
Apparent affinity, pH 7.3, single concentration (lidocaine 300 μM, memantine 30 μM), geometric mean of 5
  Kd: 80.1 µM
Apparent affinity, pH 8.6, single concentration (lidocaine 300 μM, memantine 30 μM), geometric mean of 5
  Kd: 28.6 µM
pH 6.0/7.3, cc 100 mM
  Ratio Reversibility: 1.076
  Ratio Tau Offset: 0.636
  Ratio Tau Onset: 0.550
  log Ratio App Aff: 0.419
pH 6.0/8.6, cc 100 mM
  Ratio Reversibility: 1.973
  Ratio Tau Offset: 0.947
  Ratio Tau Onset: 1.245
  log Ratio App Aff: 0.867
pH 6.0
  τoffset: 19.60 s
  τonset: 13.20 s
pH 7.3/8.6, cc 100 mM
  Ratio Reversibility: 1.833
  Ratio Tau Offset: 1.489
  Ratio Tau Onset: 2.263
  log Ratio App Aff: 0.448
pH 7.3
  τoffset: 30.82 s
  τonset: 23.99 s
pH 8.6
  τoffset: 20.70 s
  τonset: 10.60 s
pH=6.0, cc 100 mM
  Reversibility: 0.75
pH=7.3, cc 100 mM
  Reversibility: 0.69
pH=8.6, cc 100 mM
  Reversibility: 0.38

## Fc1ccc([C@@H]2CCNC[C@H]2COc2ccc3c(c2)OCO3)cc1 [paroxetine]
  class of pH-dependence pattern (cluster analysis): Class C
In words
  effect of alkalic pH on onset/offset kinetics: acceleration of onset
pH 6.0/7.3, cc 30 mM
  Ratio Reversibility: 1.674
  Ratio Tau Offset: 0.896
  Ratio Tau Onset: 1.411
  log Ratio App Aff: 0.413
pH 6.0/8.6, cc 30 mM
  Ratio Reversibility: 6.394
  Ratio Tau Offset: 1.191
  Ratio Tau Onset: 2.000
  log Ratio App Aff: 0.762
pH 6.0
  τoffset: 33.83 s
  τonset: 47.12 s
[1]
  Kd: 49.6 µM
pH 7.3/8.6, cc 30 mM
  Ratio Reversibility: 3.820
  Ratio Tau Offset: 1.329
  Ratio Tau Onset: 1.418
  log Ratio App Aff: 0.349
pH 7.3
  τoffset: 37.75 s
  τonset: 33.39 s
[2]
  Kd: 19.2 µM
pH 8.6
  τoffset: 28.40 s
  τonset: 23.55 s
[3]
  Kd: 8.57 µM
pH=6.0, cc 30 mM
  Reversibility: 0.65
[4]
  Kd: 49.6 µM
pH=7.3, cc 30 mM
  Reversibility: 0.39
[5]
  Kd: 19.2 µM
pH=8.6, cc 30 mM
  Reversibility: 0.10
[6]
  Kd: 8.57 µM

## O=C1NC(=O)C(c2ccccc2)(c2ccccc2)N1 [phenytoin]
  class of pH-dependence pattern (cluster analysis): Class A
pH 6.0/7.3, cc 300 mM
  Ratio Reversibility: 1.014
  Ratio Tau Offset: 1.227
  Ratio Tau Onset: 0.985
  log Ratio App Aff: 0.026
pH 6.0/8.6, cc 300 mM
  Ratio Reversibility: 1.313
  Ratio Tau Offset: 0.993
  Ratio Tau Onset: 0.650
  log Ratio App Aff: 0.109
pH 6.0
  τoffset: 21.26 s
  τonset: 13.00 s
[1]
  Kd: 830 µM
pH 7.3/8.6, cc 300 mM
  Ratio Reversibility: 1.295
  Ratio Tau Offset: 0.809
  Ratio Tau Onset: 0.660
  log Ratio App Aff: 0.083
pH 7.3
  τoffset: 17.32 s
  τonset: 13.20 s
[2]
  Kd: 781 µM
pH 8.6
  τoffset: 21.40 s
  τonset: 20.00 s
[3]
  Kd: 646 µM
pH=6.0, cc 300 mM
  Reversibility: 0.83
pH=6.0, cc 300 mM, read-out: Apparent Affinity
  Kd: 830 µM
pH=7.3, cc 300 mM
  Reversibility: 0.82
pH=7.3, cc 300 mM, read-out: Apparent Affinity
  Kd: 781 µM
pH=8.6, cc 300 mM
  Reversibility: 0.63
pH=8.6, cc 300 mM, read-out: Apparent Affinity
  Kd: 646 µM

## COc1ccccc1OCC(O)CN1CCN(CC(=O)Nc2c(C)cccc2C)CC1 (stereo not drawn) [ranolazine]
  class of pH-dependence pattern (cluster analysis): Class A
pH 6.0/7.3, cc 100 mM
  Ratio Reversibility: 0.873
  Ratio Tau Offset: 1.223
  Ratio Tau Onset: 0.632
  log Ratio App Aff: -0.038
pH 6.0/8.6, cc 100 mM
  Ratio Reversibility: 1.042
  Ratio Tau Offset: 1.663
  Ratio Tau Onset: 0.667
  log Ratio App Aff: -0.072
pH 6.0
  τoffset: 29.60 s
  τonset: 12.00 s
[1]
  Kd: 206 µM
pH 7.3/8.6, cc 100 mM
  Ratio Reversibility: 1.194
  Ratio Tau Offset: 1.360
  Ratio Tau Onset: 1.056
  log Ratio App Aff: -0.034
pH 7.3
  τoffset: 24.20 s
  τonset: 19.00 s
[2]
  Kd: 225 µM
pH 8.6
  τoffset: 17.80 s
  τonset: 18.00 s
[3]
  Kd: 243 µM
pH=6.0, cc 100 mM
  Reversibility: 0.76
pH=6.0, cc 100 mM, read-out: Apparent Affinity
  Kd: 206 µM
pH=7.3, cc 100 mM
  Reversibility: 0.88
pH=7.3, cc 100 mM, read-out: Apparent Affinity
  Kd: 225 µM
pH=8.6, cc 100 mM
  Reversibility: 0.73
pH=8.6, cc 100 mM, read-out: Apparent Affinity
  Kd: 243 µM

## Nc1nc2ccc(OC(F)(F)F)cc2s1 [riluzole]
  class of pH-dependence pattern (cluster analysis): Class G
pH 6.0
  τoffset: 23.60 s
  τonset: 9.20 s
pH 7.3
  τoffset: 21.40 s
  τonset: 9.60 s
pH 8.6
  τoffset: 23.40 s
  τonset: 10.40 s
pH=6.0, cc 30 mM
  Reversibility: 0.45
pH=7.3, cc 30 mM
  Reversibility: 0.73
pH=8.6, cc 30 mM
  Reversibility: 0.45

Reference: PMC4585259 (Frontiers in Pharmacology, 2015)
